{
  "source": "patent US7767240B2",
  "about": "“Microbiological control in poultry processing” (priority 2001, dated 2010)",
  "experiment_in_all_cases": "Bacteria count per bird over 20-day storage (Example 4)",
  "assay_type_in_all_cases": "cell-based",
  "settings_in_all_cases": "pH 8",
  "key": {"[1]": {"test_system": "Shigella sonnei ATCC 9290", "experimental": "(§1) A study was conducted to determine the effect of Clorox® bleach, and 1,3-dibromo-5,5-dimethylhydantoin (DBDMH) on carcass bacteria residual after 1.5 hour in a chill tank solution and spoilage 20-day shelf life longevity (caused by bacteria contamination). Tests were conducted at pH 8 (adjusted by trisodium phosphate). Skin pigmentation (Minolta Color Meter L value or Lightness, a value or redness and b value or yellowness) were determined before and post-processing.\n(§2) In general the study involved normal processing of 56-day-old birds, immersing carcasses first in a warm bath containing 10^4 per mL Escherichia coli, 10^4 per mL Salmonella enteritidis, 10^4 per mL Pseudomonas aeruginosa, 10^4 per mL Campylobacter jejuni, and 10^4 per mL spoilage bacteria each from […] strains (Listeria monocytogenes and Shigella sonnei). Carcass were then immersed in a chill tank “soup”, containing normal organic fluids (blood, fat, skin, and meat particles) and containing various disinfectants (termed test materials).\n(§3) A DBDMH stock solution and test solutions, a bacteria stock solution, and a “chicken soup” were prepared as in Example 3. In addition, the bacterial broth treatments, the whole bird wash sampling procedure, and the methodologies used for quantitative or qualitative determinations for bacterial organisms were conducted as in Example 3.\n(§4) In greater detail the trial events and experimental design used in this group of tests were as follows: • a) Test microorganisms used were: • Escherichia coli ATCC 11229 • Pseudomonas aeruginosa ATCC 15442 • Salmonella enteritidis ATCC 13076 • Shigella sonnei ATCC 9290 • Listeria monocytogenes ATCC 7644 • Campylobacter jejuni ATCC 29428 • b) Test Procedure: All test strains were grown individually at 35° C. for 24 hours in the media specified in Table 12. Cells were harvested by centrifugation at 10,000×g for 10 minutes and washed twice with Butterfield's Phosphate Buffer (BPB of pH 7.2). Cells were resuspended in BPB to obtain a cell suspension of approximately 1.0×10^8 CFU/mL for each microorganism. The target inoculum levels were approximately 10^6 CFU/mL in the final test solutions. In the cases of S. enteritidis and P. aeruginosa the species were washed by pouring into prepared sterile centrifuge tubes with cheesecloth filters. The culture was then pelleted and washed using above techniques and repeated 3 times. • c) The birds (56 days old) were processed under normal commercial conditions. • d) The bacteria were added to a large batch of the “chicken soup”, and then aliquots of the resultant mixture were distributed equally among the chill waters used for each test. Then the particular disinfectant composition under test was added to one of the chill waters. […]"}, "[2]": {"test_system": "Salmonella enteritidis ATCC 13076", "experimental": "as §1, §2, §3, §4"}, "[3]": {"test_system": "Pseudomonas aeruginosa ATCC 15442", "experimental": "as §1, §2, §3, §4"}},
  "data": [
    {"smiles": "CC1(C)C(=O)N(Br)C(=O)N1Br", "note": "[DBDMH, 1,3-dibromo-5,5-dimethylhydantoin]", "values": [
      {"measurement": "average bacteria count per bird, S. sonnei", "setting": "[1]; Day 10, 20 ppm", "value": 156, "unit": "per bird"},
      {"measurement": "average bacteria count per bird, S. sonnei", "setting": "[1]; Day 12, 10 ppm", "value": 2347, "unit": "per bird"},
      {"measurement": "average bacteria count per bird, S. sonnei", "setting": "[1]; Day 12, 20 ppm", "value": 323, "unit": "per bird"},
      {"measurement": "average bacteria count per bird, S. sonnei", "setting": "[1]; Day 14, 10 ppm", "value": 2848, "unit": "per bird"},
      {"measurement": "average bacteria count per bird, S. sonnei", "setting": "[1]; Day 14, 20 ppm", "value": 657, "unit": "per bird"},
      {"measurement": "average bacteria count per bird, S. sonnei", "setting": "[1]; Day 16, 10 ppm", "value": 3513, "unit": "per bird"},
      {"measurement": "average bacteria count per bird, S. sonnei", "setting": "[1]; Day 16, 20 ppm", "value": 1286, "unit": "per bird"},
      {"measurement": "average bacteria count per bird, S. sonnei", "setting": "[1]; Day 18, 10 ppm", "value": 4242, "unit": "per bird"},
      {"measurement": "average bacteria count per bird, S. sonnei", "setting": "[1]; Day 18, 20 ppm", "value": 1604, "unit": "per bird"},
      {"measurement": "average bacteria count per bird, S. sonnei", "setting": "[1]; Day 20, 10 ppm", "value": 4941, "unit": "per bird"},
      {"measurement": "average bacteria count per bird, S. sonnei", "setting": "[1]; Day 20, 20 ppm", "value": 1834, "unit": "per bird"},
      {"measurement": "average bacteria count per bird, S. enteritidis", "setting": "[2]; Day 0, 10 ppm", "value": 292, "unit": "per bird"},
      {"measurement": "average bacteria count per bird, S. enteritidis", "setting": "[2]; Day 0, 20 ppm", "value": 12, "unit": "per bird"},
      {"measurement": "average bacteria count per bird, S. enteritidis", "setting": "[2]; Day 2, 10 ppm", "value": 344, "unit": "per bird"},
      {"measurement": "average bacteria count per bird, S. enteritidis", "setting": "[2]; Day 2, 20 ppm", "value": 18, "unit": "per bird"},
      {"measurement": "average bacteria count per bird, S. enteritidis", "setting": "[2]; Day 4, 10 ppm", "value": 394, "unit": "per bird"},
      {"measurement": "average bacteria count per bird, S. enteritidis", "setting": "[2]; Day 4, 20 ppm", "value": 27, "unit": "per bird"},
      {"measurement": "average bacteria count per bird, S. enteritidis", "setting": "[2]; Day 6, 10 ppm", "value": 433, "unit": "per bird"},
      {"measurement": "average bacteria count per bird, S. enteritidis", "setting": "[2]; Day 6, 20 ppm", "value": 55, "unit": "per bird"},
      {"measurement": "average bacteria count per bird, S. enteritidis", "setting": "[2]; Day 8, 10 ppm", "value": 507, "unit": "per bird"},
      {"measurement": "average bacteria count per bird, S. enteritidis", "setting": "[2]; Day 8, 20 ppm", "value": 104, "unit": "per bird"},
      {"measurement": "average bacteria count per bird, S. enteritidis", "setting": "[2]; Day 10, 10 ppm", "value": 616, "unit": "per bird"},
      {"measurement": "average bacteria count per bird, S. enteritidis", "setting": "[2]; Day 10, 20 ppm", "value": 212, "unit": "per bird"},
      {"measurement": "average bacteria count per bird, S. enteritidis", "setting": "[2]; Day 12, 10 ppm", "value": 740, "unit": "per bird"},
      {"measurement": "average bacteria count per bird, S. enteritidis", "setting": "[2]; Day 12, 20 ppm", "value": 413, "unit": "per bird"},
      {"measurement": "average bacteria count per bird, S. enteritidis", "setting": "[2]; Day 14, 10 ppm", "value": 919, "unit": "per bird"},
      {"measurement": "average bacteria count per bird, S. enteritidis", "setting": "[2]; Day 14, 20 ppm", "value": 832, "unit": "per bird"},
      {"measurement": "average bacteria count per bird, S. enteritidis", "setting": "[2]; Day 16, 10 ppm", "value": 1081, "unit": "per bird"},
      {"measurement": "average bacteria count per bird, S. enteritidis", "setting": "[2]; Day 16, 20 ppm", "value": 1711, "unit": "per bird"},
      {"measurement": "average bacteria count per bird, S. enteritidis", "setting": "[2]; Day 18, 10 ppm", "value": 1286, "unit": "per bird"},
      {"measurement": "average bacteria count per bird, S. enteritidis", "setting": "[2]; Day 18, 20 ppm", "value": 2074, "unit": "per bird"},
      {"measurement": "average bacteria count per bird, S. enteritidis", "setting": "[2]; Day 20, 10 ppm", "value": 1513, "unit": "per bird"},
      {"measurement": "average bacteria count per bird, S. enteritidis", "setting": "[2]; Day 20, 20 ppm", "value": 2258, "unit": "per bird"},
      {"measurement": "average bacteria count per bird, P. aeruginosa", "setting": "[3]; Day 0, 10 ppm", "value": 743, "unit": "per bird"},
      {"measurement": "average bacteria count per bird, P. aeruginosa", "setting": "[3]; Day 0, 20 ppm", "value": 6, "unit": "per bird"},
      {"measurement": "average bacteria count per bird, P. aeruginosa", "setting": "[3]; Day 2, 10 ppm", "value": 820, "unit": "per bird"},
      {"measurement": "average bacteria count per bird, P. aeruginosa", "setting": "[3]; Day 2, 20 ppm", "value": 9, "unit": "per bird"},
      {"measurement": "average bacteria count per bird, P. aeruginosa", "setting": "[3]; Day 4, 10 ppm", "value": 931, "unit": "per bird"},
      {"measurement": "average bacteria count per bird, P. aeruginosa", "setting": "[3]; Day 4, 20 ppm", "value": 13, "unit": "per bird"},
      {"measurement": "average bacteria count per bird, P. aeruginosa", "setting": "[3]; Day 6, 10 ppm", "value": 1013, "unit": "per bird"},
      {"measurement": "average bacteria count per bird, P. aeruginosa", "setting": "[3]; Day 6, 20 ppm", "value": 25, "unit": "per bird"},
      {"measurement": "average bacteria count per bird, P. aeruginosa", "setting": "[3]; Day 8, 10 ppm", "value": 1268, "unit": "per bird"},
      {"measurement": "average bacteria count per bird, P. aeruginosa", "setting": "[3]; Day 8, 20 ppm", "value": 48, "unit": "per bird"},
      {"measurement": "average bacteria count per bird, P. aeruginosa", "setting": "[3]; Day 10, 10 ppm", "value": 1485, "unit": "per bird"},
      {"measurement": "average bacteria count per bird, P. aeruginosa", "setting": "[3]; Day 10, 20 ppm", "value": 91, "unit": "per bird"},
      {"measurement": "average bacteria count per bird, P. aeruginosa", "setting": "[3]; Day 12, 10 ppm", "value": 1730, "unit": "per bird"},
      {"measurement": "average bacteria count per bird, P. aeruginosa", "setting": "[3]; Day 12, 20 ppm", "value": 186, "unit": "per bird"},
      {"measurement": "average bacteria count per bird, P. aeruginosa", "setting": "[3]; Day 14, 10 ppm", "value": 2055, "unit": "per bird"},
      {"measurement": "average bacteria count per bird, P. aeruginosa", "setting": "[3]; Day 14, 20 ppm", "value": 363, "unit": "per bird"},
      {"measurement": "average bacteria count per bird, P. aeruginosa", "setting": "[3]; Day 16, 10 ppm", "value": 2560, "unit": "per bird"},
      {"measurement": "average bacteria count per bird, P. aeruginosa", "setting": "[3]; Day 16, 20 ppm", "value": 700, "unit": "per bird"},
      {"measurement": "average bacteria count per bird, P. aeruginosa", "setting": "[3]; Day 18, 10 ppm", "value": 3087, "unit": "per bird"},
      {"measurement": "average bacteria count per bird, P. aeruginosa", "setting": "[3]; Day 18, 20 ppm", "value": 826, "unit": "per bird"},
      {"measurement": "average bacteria count per bird, P. aeruginosa", "setting": "[3]; Day 20, 10 ppm", "value": 3853, "unit": "per bird"},
      {"measurement": "average bacteria count per bird, P. aeruginosa", "setting": "[3]; Day 20, 20 ppm", "value": 908, "unit": "per bird"}
    ]}
  ]
}
